Like-named read-outs stand apart in the source and are kept apart here.
What was measured:
RMA-T lymphoma = assay: anti-tumor activity and survival in RMA-T lymphoma bearing mice; type: in vivo, C57BL/6 mice
Procedure: The Rauscher virus-induced RMA lymphoma of C57BL/6 origin (69) were maintained in vitro in RPMI 1640, 5% fetal bovine serum (FBS), 100 U/ml penicillin, 100 μg/ml streptomycin, 0.25 μg/ml amphotericin B, 2 mM glutamine and 50 μM 2-mercaptoethanol. RMA-T was derived from the RMA cell line by transfection with a construct encoding the Thy 1.1 allele and cultured as described Moro, 1997 #28].
(§1) In vivo studies on animal models were approved by the Ethical Committee of the San Raffaele H Scientific Institute and performed according to the prescribed guidelines. C57BL/6 (Charles River Laboratories, Calco, Italy) (16-18 g) were challenged with 5×10^4 RMA-T or TSA living cells, respectively, s.c. in the left flank. […] Each experiment was carried out with 5 mice per group. The tumor growth was monitored daily by measuring the tumor size with calipers. The tumor area was estimated by calculating r1×r2 π, whereas tumor volume was estimated by calculating r1×r2×r3×4/3 π, where r1 and r2 are the longitudinal and lateral radii, and r3 is the thickness of tumors protruding from the surface of normal skin. Animals were killed before the tumor reached 1.0-1.3 cm diameter. Tumor sizes are shown as mean±SE (5-10 animals per group) and compared by t-test.
To avoid excessive suffering, the animals were killed when the tumor diameter was greater than 1-1.3 cm.

[1] = system: L-M mouse fibroblasts (ATCC CCL1.2)
[2] = cited from earlier work
p75TNFR = target: T1, p75TNFR (Homo sapiens, UniProt P20333); conditions: cited from earlier work
T1 sequence (P20333 23-461): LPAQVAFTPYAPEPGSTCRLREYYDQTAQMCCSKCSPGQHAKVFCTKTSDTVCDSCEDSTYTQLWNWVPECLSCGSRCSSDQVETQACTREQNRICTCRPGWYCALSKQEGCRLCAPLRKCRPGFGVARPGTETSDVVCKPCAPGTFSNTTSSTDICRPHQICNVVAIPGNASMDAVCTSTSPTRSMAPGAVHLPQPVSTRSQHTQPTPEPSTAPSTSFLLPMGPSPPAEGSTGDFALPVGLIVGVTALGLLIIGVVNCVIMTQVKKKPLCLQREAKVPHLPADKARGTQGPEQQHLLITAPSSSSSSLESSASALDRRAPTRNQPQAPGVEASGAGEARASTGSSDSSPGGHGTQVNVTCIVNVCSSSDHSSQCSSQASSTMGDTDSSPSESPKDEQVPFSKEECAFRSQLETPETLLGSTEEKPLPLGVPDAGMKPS

[3] = lethality in RMA-T tumor bearing mice; type: in vivo, C57BL/6 mice; conditions: 3 days after treatment, single dose i.p.
Procedure: as §1, with “flank. Ten-twelve days after tumor implantation, mice were treated, i.p., with 250 μl TNF or RGD-TNF solutions, diluted with endotoxin-free 0.9% sodium chloride.” for “flank.”
Murine TNF administered to animals bearing established s.c. RMA-T tumors, causes 24 h later a reduction in the tumor mass and haemorragic necrosis in the central part of the tumor, followed by a significant growth delay for few days (71). […] In a first set of experiments we investigated the effect of various doses (i.p.) of TNF or RGD-TNF on animal survival. […]

p55TNFR = target: T2, p55TNFR (Homo sapiens, UniProt P19438); conditions: cited from earlier work
T2 sequence (P19438 30-455): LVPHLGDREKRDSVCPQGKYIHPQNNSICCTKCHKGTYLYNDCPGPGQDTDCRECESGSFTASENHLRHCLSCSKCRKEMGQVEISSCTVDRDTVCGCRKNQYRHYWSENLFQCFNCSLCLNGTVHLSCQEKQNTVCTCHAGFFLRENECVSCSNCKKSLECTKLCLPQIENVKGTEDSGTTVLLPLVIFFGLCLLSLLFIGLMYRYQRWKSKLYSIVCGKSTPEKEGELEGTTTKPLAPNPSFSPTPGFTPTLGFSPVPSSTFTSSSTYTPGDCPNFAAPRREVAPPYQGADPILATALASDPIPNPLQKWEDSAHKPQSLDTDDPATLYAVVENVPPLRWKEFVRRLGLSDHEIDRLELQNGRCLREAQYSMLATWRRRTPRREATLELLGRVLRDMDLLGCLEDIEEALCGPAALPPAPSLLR

[4] = dose 1 μg i.v., treated 12 days after tumor implantation
[5] = dose 2 μg i.v., treated 12 days after tumor implantation
[6] = dose 4 μg i.v., treated 12 days after tumor implantation

TNF: Tumor Necrosis Factor-α; in the examples murine recombinant Met-TNF1-156 produced in E. coli
Survival (%) Day 14 (RMA-T lymphoma; [4]): 100%
Survival (%) Day 22 (RMA-T lymphoma; [4]): 22%
Survival (%) Day 32 (RMA-T lymphoma; [4]): 0%
Survival (%) Day 14 (RMA-T lymphoma; [5]): 100%
Survival (%) Day 22 (RMA-T lymphoma; [5]): 37%
Survival (%) Day 32 (RMA-T lymphoma; [5]): 0%
Survival (%) Day 90 (2nd ch.) (RMA-T lymphoma; dose 4 μg i.v., re-challenge with 50.000 RMA-T at day 90): 0%
Survival (%) Day 14 (RMA-T lymphoma; [6]): 100%
Survival (%) Day 22 (RMA-T lymphoma; [6]): 70%
Survival (%) Day 32 (RMA-T lymphoma; [6]): 30%
Survival (%) Day 37 (RMA-T lymphoma; [6]): 10%
Survival (%) Day 14 (RMA-T lymphoma; dose 8 μg i.v., treated 12 days after tumor implantation): 0%
Survival (%) Day 14 (RMA-T lymphoma; dose 16 μg i.v., treated 12 days after tumor implantation): 0%
animals cured (RMA-T lymphoma; single treatment, RGD-TNF 16 μg, TNF all doses): no animals at all were cured
in vitro cytotoxic activity [1]: (1.2±0.14)×10^8 units/mg
maximum tolerated dose ([2]; bolus, intravenous, humans): 218-410 μg/m^2
maximum tolerated dose ([2]; systemic administration): 8 to 10 µg/kg
Kd (p75TNFR): 100 pM
LD50 (lethality) [3]: 6 µg
Kd (p55TNFR): 500 pM
